According to PubChem BioAssay (NCI):
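1) Cells in 96-well plates. 2) Compound, 48 h, 5 concentrations. 3) Linear interpolation between surrounding doses. 4) Unreached endpoint = highest concentration. Abbreviation: GI50, concentration required for 50% inhibition of growth. The concentration for full growth arrest is given as TGI.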

Tests used:
Experiment in all cases: inhibition of tumour cell growth, NCI panel, 48 h
LOX IMVI melanoma = test system: LOX IMVI melanoma
SK-MEL-2 melanoma = test system: SK-MEL-2 melanoma
ACHN renal = test system: ACHN renal
SN12C renal = test system: SN12C renal
MALME-3M melanoma = test system: MALME-3M melanoma
A498 renal = test system: A498 renal
NCI-H226 lung = test system: NCI-H226 lung
OVCAR-8 ovarian = test system: OVCAR-8 ovarian
SF-539 CNS = test system: SF-539 CNS
SK-OV-3 ovarian = test system: SK-OV-3 ovarian
CCRF-CEM leukemia = test system: CCRF-CEM leukemia
NCI-H460 lung = test system: NCI-H460 lung
COLO 205 colon = test system: COLO 205 colon
HT29 colon = test system: HT29 colon
CAKI-1 renal = test system: CAKI-1 renal
HOP-92 NSCLC = test system: HOP-92 NSCLC

Row | Compound | TGI (LOX IMVI melanoma) | TGI (SK-MEL-2 melanoma) | TGI (ACHN renal) | TGI (SN12C renal) | TGI (MALME-3M melanoma) | TGI (A498 renal) | TGI (NCI-H226 lung) | TGI (OVCAR-8 ovarian) | TGI (SF-539 CNS) | TGI (SK-OV-3 ovarian) | TGI (CCRF-CEM leukemia) | TGI (NCI-H460 lung) | TGI (COLO 205 colon) | TGI (HT29 colon) | GI50 (CAKI-1 renal) | TGI (CAKI-1 renal) | GI50 (A498 renal) | GI50 (SK-OV-3 ovarian) | TGI (HOP-92 NSCLC)
1 | CCCCC1(C)C=C/C(=C2/C(=O)O/C(=C\C(=O)O)C2=O)O1 (stereo not drawn) | > 100 µM | > 100 µM | > 100 µM | > 100 µM | > 100 µM | > 100 µM | > 100 µM | > 100 µM | > 100 µM | > 100 µM | > 100 µM | > 100 µM | > 100 µM | > 100 µM |  |  |  |  | 
2 | C=C1CCC2[C@@H](CCC3[C@]2(C)CCC[C@]3(C)C(=O)OC)C1CC=O (stereo partly drawn) |  | 38.2 µM | 30 µM | 36.7 µM | 37.5 µM | 31.9 µM | 37.2 µM | 37.3 µM | 31.1 µM | 37.7 µM | 35.2 µM | 31.7 µM | 35.5 µM | 30.8 µM | 16.4 µM | 30.1 µM | 17.2 µM | 21.4 µM | 27.8 µM
3 | COC(=O)[C@@]1(C(C)CC(=O)O)CCCCC1=O (stereo partly drawn) | > 100 µM | > 100 µM | > 100 µM | > 100 µM | > 100 µM | > 100 µM | > 100 µM | > 100 µM | > 100 µM | > 100 µM | > 100 µM | > 100 µM | > 100 µM | > 100 µM |  | > 100 µM |  |  | > 100 µM
4 | C/C=C/C#CC#C/C=C/C=C/C(O)CCO (stereo not drawn) | > 23.1 µM | > 23.1 µM | > 23.1 µM | > 23.1 µM | > 23.1 µM |  | > 23.1 µM | > 23.1 µM | > 23.1 µM | > 23.1 µM | > 23.1 µM | > 23.1 µM | > 23.1 µM | > 23.1 µM |  | > 23.1 µM |  |  | > 23.1 µM
5 | O=C(c1nc2ccccc2[nH]c1=O)C(O)c1ccccc1 (stereo not drawn) | > 100 µM | > 100 µM | > 100 µM | > 100 µM | > 100 µM | 99.6 µM | > 100 µM | > 100 µM | > 100 µM | > 100 µM | > 100 µM | > 100 µM | > 100 µM | > 100 µM |  | > 100 µM |  |  | > 100 µM
6 | COc1ccc(CCC2c3cc(OC)c(OC)cc3CCN2C)cc1OC (stereo not drawn) | > 100 µM | > 100 µM | > 100 µM | > 100 µM | > 100 µM |  | > 100 µM | > 100 µM | > 100 µM | > 100 µM | > 100 µM | > 100 µM | > 100 µM | > 100 µM |  | > 100 µM |  |  | > 100 µM
7 | NC1CC(=O)c2c1sc(Cl)c2Cl (stereo not drawn) |  | > 100 µM | > 100 µM | > 100 µM | > 100 µM | > 100 µM |  | > 100 µM | > 100 µM | > 100 µM | > 100 µM | > 100 µM | > 100 µM | > 100 µM |  | > 100 µM |  |  | 
8 | CCN(CC)c1ccc2c(c1)Oc1ccc(N(CC)CC)cc1C21Oc2ccccc2-c2c1c1ccccc1n2CC (stereo not drawn) | > 100 µM |  | > 100 µM | > 100 µM | 9.27 µM | > 100 µM | > 100 µM | > 100 µM |  | > 100 µM | > 100 µM |  | > 100 µM | > 100 µM |  | > 100 µM |  |  | 2.12 µM
9 | CC1(C)CC(=O)C(/C(=N/NC(=S)NN)C(=O)Nc2nc3ccc([N+](=O)[O-])cc3s2)C(=O)C1 | > 100 µM | > 100 µM | > 100 µM | > 100 µM | > 100 µM | > 100 µM | > 100 µM | > 100 µM | > 100 µM | > 100 µM | > 100 µM | > 100 µM | > 100 µM | > 100 µM |  | > 100 µM |  |  | > 100 µM
10 | COc1ccc(/C=C2\CCC(C)(CN(C)C)C2=O)cc1OC (stereo not drawn) | > 100 µM | > 100 µM | > 100 µM | > 100 µM | > 100 µM | > 100 µM | > 100 µM | > 100 µM | > 100 µM |  | > 100 µM | > 100 µM | > 100 µM | > 100 µM |  | > 100 µM |  |  | > 100 µM
11 | CCOC(=O)/C(C#N)=C(O)/C(=C\c1ccc(Br)cc1)NC(=O)c1ccccc1 |  |  | > 100 µM | > 100 µM | > 100 µM | > 100 µM | > 100 µM | > 100 µM | > 100 µM | > 100 µM | > 100 µM | > 100 µM | > 100 µM | > 100 µM |  | > 100 µM |  |  | > 100 µM
12 | O=C(CCC1C(=O)NC(=S)NC1=O)c1ccc2ccccc2c1 | > 100 µM | > 100 µM | > 100 µM | > 100 µM | > 100 µM | > 100 µM | > 100 µM | > 100 µM | > 100 µM | > 100 µM | > 100 µM | > 100 µM | > 100 µM | > 100 µM |  | > 100 µM |  |  | > 100 µM
13 | CN(C)C(=NCc1ccccc1)NC#N | > 100 µM | > 100 µM | > 100 µM | > 100 µM |  |  |  | > 100 µM | > 100 µM | > 100 µM |  | > 100 µM | > 100 µM | > 100 µM |  | > 100 µM |  |  | > 100 µM
14 | O=C1Nc2ccccc2N=CC1NC(=O)C(c1ccccc1)c1ccccc1 (stereo not drawn) | > 100 µM | > 100 µM | > 100 µM | > 100 µM | > 100 µM | > 100 µM | > 100 µM | > 100 µM | > 100 µM | > 100 µM | > 100 µM | > 100 µM | > 100 µM | > 100 µM |  | > 100 µM |  |  | > 100 µM
15 | CC(=O)C1=CN=C2C(=O)N(c3ccccc3)N(C)C12C (stereo not drawn) | > 100 µM | > 100 µM | > 100 µM | > 100 µM | > 100 µM | > 100 µM | > 100 µM | > 100 µM | > 100 µM | > 100 µM | > 100 µM |  | > 100 µM |  |  | > 100 µM |  |  | > 100 µM
16 | CC1(c2ccccc2Cl)C(C#N)C(=O)NC(=O)C1C#N (stereo not drawn) | > 100 µM | > 100 µM | > 100 µM | > 100 µM | > 100 µM | > 100 µM | 98 µM | > 100 µM | > 100 µM | > 100 µM | > 100 µM | > 100 µM | > 100 µM | > 100 µM |  | > 100 µM |  |  | 59.8 µM
17 | NC(=O)C(=O)C1CCC2=C(Sc3ccccc3N2)C1=O (stereo not drawn) | > 100 µM | > 100 µM | > 100 µM |  | > 100 µM | > 100 µM |  | > 100 µM | > 100 µM | > 100 µM |  | > 100 µM | > 100 µM |  |  | > 100 µM |  |  | > 100 µM
18 | CCOP1(=O)C=C(C)C(Cl)=C(C)C1 (stereo not drawn) | 50.4 µM | 50.4 µM | 72.2 µM | 51.5 µM |  |  | 59.9 µM | > 100 µM | 59.5 µM | > 100 µM | 59.2 µM | > 100 µM | 24.4 µM | 79.6 µM |  |  |  |  | 68.3 µM
19 | NS(=O)(=O)c1nnc(NS(=O)(=O)C(F)(F)F)s1 |  | > 100 µM | > 100 µM |  | > 100 µM | > 100 µM | > 100 µM | > 100 µM | > 100 µM | > 100 µM |  | > 100 µM | > 100 µM | > 100 µM |  | > 100 µM |  |  | > 100 µM
20 | Cc1ccccc1NC(=O)C(=O)C(C#N)c1ccccc1C (stereo not drawn) | 39.4 µM | > 100 µM | > 100 µM | > 100 µM | > 100 µM | > 100 µM | > 100 µM | > 100 µM | > 100 µM | > 100 µM | 89.8 µM | > 100 µM | > 100 µM | > 100 µM |  | > 100 µM |  |  | > 100 µM
21 | C/C(=C\CBr)CCC(Br)C(C)(C)Cl (stereo not drawn) | > 100 µM | > 100 µM | > 100 µM | > 100 µM | > 100 µM |  | > 100 µM | > 100 µM | > 100 µM | > 100 µM |  | > 100 µM | > 100 µM | > 100 µM |  | > 100 µM |  |  | > 100 µM
22 | Nc1c([N+](=O)[O-])nc(Cl)c2nncn12 | > 61.1 µM | > 100 µM | > 100 µM | > 100 µM | > 100 µM | > 100 µM | > 100 µM | > 100 µM | > 100 µM | > 100 µM | > 68.2 µM | > 100 µM | > 65 µM | > 100 µM |  | > 100 µM |  |  | > 100 µM
23 | COc1cc(O)c2c(=O)c(O)c(-c3ccc(O)c(OC)c3)oc2c1 | > 100 µM | > 100 µM |  | > 100 µM | > 100 µM | > 100 µM | > 100 µM | > 100 µM | > 100 µM |  | > 21.9 µM | > 100 µM | > 86 µM | > 100 µM |  | > 100 µM |  |  | 
24 | NNC(=O)c1c(-c2cccnc2)cnc2ccccc12 |  | > 100 µM | > 100 µM | > 100 µM | > 100 µM |  | > 100 µM | > 100 µM | > 100 µM | > 100 µM | > 100 µM | > 100 µM | > 100 µM | > 100 µM |  | > 100 µM |  |  | > 100 µM
25 | CC12CCC(=O)N1c1ccc([N+](=O)[O-])cc1N2 (stereo not drawn) | > 100 µM | > 100 µM | > 100 µM | > 100 µM | > 100 µM | > 100 µM | > 100 µM | > 100 µM | > 100 µM | > 100 µM | > 100 µM |  | > 100 µM | > 100 µM |  |  |  |  | 
